Data taken from patent US20230255974A1, “USE OF THYROMIMETICS FOR THE TREATMENT OF CANCER” (THE UNIVERSITY OF VERMONT, priority 2020, published 2023).

Key:
[1] = test system: interferon/JAK1/STAT1 pathway; assay: Interferon/JAK1/STAT1 pathway expression (immunoblot, qPCR); format: cell-based, human; conditions: SW-TRβ
Description: Immunoblot Analysis. Proteins were isolated from whole cells in lysis buffer (20 mM Tris-HCl [pH 8], 137 mM NaCl, 10% glycerol, 1% Triton X-100, and 2 mM EDTA) containing Protease Inhibitor Cocktail 78410 (Thermo Scientific). Proteins were resolved by polyacrylamide gel electrophoresis on 10% sodium dodecyl sulfate gels EC60752 (Life Technologies) and immobilized onto nitrocellulose membranes (GE Healthcare) by electroblot (Bio-Rad Laboratories). Specific proteins were detected by immunoblotting with the indicated antibodies (Table 4); immunoreactive proteins were detected by enhanced chemiluminescence (Thermo Scientific) on a ChemiDoc XRS+ (Bio-Rad Laboratories). RNA Extraction and Quantitative Real-Time PCR (qRT-PCR). Total RNA was extracted using RNeasy Plus Kit (Qiagen) according to manufacturer's protocol. cDNA was then generated using the 5×RT Mastermix (ABM). Gene expression to validate RNASeq analysis was quantified by qRT-PCR using 2×SuperGreen Mastermix (ABM) on a QuantStudio 3 real-time PCR system (Applied Biosystems). Fold change in gene expression compared to endogenous controls was calculated using the ddCT method.

[2] = test system: MDA-MB-468 cells (EV, TRβ); conditions: MDA-MB-468 in the presence of TRβ, 10 nM, 3 days
Description: Triple negative breast cancer were examined next. […] TNBC cancers and other advanced solid tumors have lower endogenous levels of expression of TRβ. […] Cell migration was measured by scratch assay (FIG. 28). […] Data are mean+/−SD; *indicates p<0.05 determined by t-test.

[3] = test system: SW1736 cells (SW-EV, SW-TRβ); assay: Tumorsphere assay, T3; format: cell-based, human; conditions: 10^−8 M T3, seven days
NthyOri thyroid cells = conditions: normal-like NthyOri thyroid cells
[4] = test system: SW1736 cells (SW-EV, SW-TRβ); assay: RNA-seq gene expression in SW-EV and SW-TRβ; format: cell-based, human
Description: RNA-seq Library Construction and Quality Control. 80% confluent monolayers of SW-EV and SW-TRβ cells were hormone starved for 24 hours in phenol red free RPMI with charcoal-stripped fetal bovine serum. 10^−8M T3 was added and incubated for 24 hours prior to sample collection. Total RNA was extracted and purified using RNeasy Plus Kit (Qiagen) according to manufacturer's protocol. Purity of the total RNA samples was assessed via BioAnalyzer (Agilent) and samples with a RIN score >7 were used for library construction. rRNA was depleted using 1 μg of total RNA with the RiboErase kit (KAPA Biosystems). Strand-specific Illumina cDNA libraries were prepared using the KAPA Stranded RNA-Seq library preparation kit with 10 cycles of PCR (KAPA Biosystems). Library quality was assessed by BioAnalyzer (Agilent) to ensure an average library size of 300 bp and the absence of excess adaptors in each sample. RNA-Seq libraries were pooled and sequenced on the Illumina HiSeq 1500 with 50 bp single-end reads. Quality scores across sequenced reads were assessed using FASTQC. […] For alignment and transcript assembly, the sequencing reads were mapped to hg38 using STAR. Sorted reads were counted using HTSeq and differential expression analysis was performed using DESeq2.

[5] = test system: SW1736 cells (SW-EV, SW-TRβ); assay: Soft agar colony formation assay; format: cell-based, human; conditions: 10^−8 M T3, 14 days
Description: Soft Agar Colony Formation Assay. Soft agar colony forming assays were used to assess anchorage-independent growth. A layer 0.50% agar in thyroid media (as described) was solidified in 6-well cell culture plates. SW-EV or SW-TRβ cells were plated in a second layer of 0.25% agar in thyroid media. 200 uL of thyroid media was maintained at the top of each well to prevent the agar from drying. […] Colonies were allowed to grow for 14 days. Live SW-EV and SW-TRβ colonies were detected via GFP expression using a ChemiDoc XRS+ (Bio-Rad Laboratories). Colonies were then counted with ImageJ using the Colony Counter plugin.

[6] = test system: SW1736 cells (SW-EV, SW-TRβ); assay: Apoptosis assay (PARP1 and caspase 3 cleavage, immunoblot); format: cell-based, human
From the text: Immunoblot Analysis. […] Proteins were resolved by polyacrylamide gel electrophoresis on 10% sodium dodecyl sulfate gels EC60752 (Life Technologies) and immobilized onto nitrocellulose membranes (GE Healthcare) by electroblot (Bio-Rad Laboratories). Specific proteins were detected by immunoblotting with the indicated antibodies (Table 4); immunoreactive proteins were detected by enhanced chemiluminescence (Thermo Scientific) on a ChemiDoc XRS+ (Bio-Rad Laboratories).
Apoptosis Assay. Cells were plated at a density of 50,000 cells/well and treated with vehicle (1 N NaOH) or 10^−8 M T3. After 5 days the cells were lysed for analysis by immunoblot. Poly (ADP-ribose) polymerase 1 (PARP1) and Caspase 3 cleavage were assessed to measure apoptotic signaling.
Immunoblot Analysis. […] Proteins were resolved by polyacrylamide gel electrophoresis on 10% sodium dodecyl sulfate gels EC60752 (Thermo Fisher Scientific) and immobilized onto nitrocellulose membranes (GE Healthcare, Chicago, Ill., USA) by electroblot (Bio-Rad Laboratories, Hercules, Calif., USA). Specific proteins were detected by immunoblotting with the indicated antibodies (Table 4); immunoreactive proteins were detected by enhanced chemiluminescence (Thermo Scientific) on a ChemiDoc XRS+ (Bio-Rad Laboratories).

[7] = test system: SW1736 cells (SW-EV, SW-TRβ); assay: Migration (wound healing) assay, T3; format: cell-based, human; conditions: SW-TRβ treated with T3 vs SW-EV
Description: Migration Assay. Cell migration was determined by wound healing assay. Cells were plated and allowed to grow to 100% confluency. Two hours prior to scratching, cells were treated with […] Mitomycin C. A scratch was performed with a P1000 pipette tip and debris was washed away with PBS. Migration media was supplemented with 10^−8 M T3. Images were obtained at 0, 24, 48, and 72 hours. Wound closure was measured using ImageJ macro “Wound Healing Tool” (http://dev.mri.cnrs.fr/projects/imagej-macros/wiki/Wound_Healing_Tool). Values were normalized so that the initial scratch was 0% closure.

## N[C@@H](Cc1cc(I)c(Oc2ccc(O)c(I)c2)c(I)c1)C(=O)O [T3, (2S)-2-amino-3-[4-(4-hydroxy-3-iodophenoxy)-3,5-diiodophenyl]propanoic acid]
[1]; T3
  expression of IRF1 target genes APOL6 and TNFSF10 (qPCR): Induction of IRF1 target genes APOL6 and TNFSF10
  expression of STAT1 target genes IRF1 and TAP1 (qPCR): increased the expression of STAT1 target genes IRF1 and TAP1
[1]; T3 treatment
  expression of JAK1 and STAT1: significantly increased
[2]
  cell migration and growth: reduced cell migration and growth
[3]; SW-EV
  number of tumorspheres formed: no effect on the number of tumorspheres
[3]; SW-TRβ
  tumorsphere growth: blocked almost all tumorsphere growth
NthyOri thyroid cells
  cell phenotypic or signaling changes: No cell phenotypic changes or signaling changes were observed
[4]; SW1736-TRβ, T3 treated
  expression of epithelial marker CDH1: increased expression
  expression of mesenchymal marker VIM: decreased
[4]; SW-EV and SW-TRβ, T3
  expression of cluster 1 genes in the ILK signaling IPA pathway: repressed
[4]; SW-TRβ, T3 treated
  thyroid differentiation markers: significantly induced
  thyroid differentiation score (TDS): significantly higher TDS
[4]; TRβ overexpression and T3, RNA-seq
  expression of thyroid-specific cancer stem cell genes ALDH, POU5F1, CD44, FUT4, PROM1: significantly reduced expression of the thyroid-specific cancer stem cell genes
[5]; SW-EV
  anchorage-independent colony growth: reduced anchorage-independent colony growth
[5]; SW-TRβ
  anchorage-independent colony growth: nearly ablated colony growth
[6]; SW-EV and SW-TRβ, T3, 5 days
  caspase 3 and PARP1 cleavage: induced cleavage of these apoptotic effectors only in SW-TRβ
[6]; SW-TRβ, five days
  apoptosis (cleaved PARP and caspase): induces apoptosis
[7]
  scratch closure (AUC): significantly reduced scratch closure
